Reference: patent US9771602B2 (priority 2013, dated 2017)
Several values for one entry are separate records, joined by “and”; a condition that tells them apart may be missing. Equal entries are not always repeated. Structures can show the parent of a compound that is named as a salt. Where two headings read alike, the source gives them in different places.

Experiments:
[1] = test system: ethanologen yeast PNY 827; assay: microbe, parasite or virus in culture; assay type: cell-based, Saccharomyces cerevisiae; conditions: for Ki: read-out: KI (inhibitory constant on growth)
[2] = test system: S. cerevisiae yeast strains PNY0860-1A, PNY827 and CEN.PK 113-7D; assay: Filter-disk growth inhibition assay with AHAS inhibitors on top agar plates; assay type: cell-based; conditions: filter disks containing 20 μg or 10 μg AHAS inhibitor; 72 hours at 30° C.
[3] = test system: mixed cultures of ethanologen S. cerevisiae PNY 827 and the butanologen yeast S. cerevisiae PNY 2129; assay type: cell-based
[4] = test system: NYLA84 ILV2-410::loxP71/66 with pLH468 and pLH475-JEA1; assay type: cell-based, S. cerevisiae; conditions: 0 μg/ml to 50 μg/ml sulfometuron methyl; strains expressing cytosolic acetolactate synthase
[5] = fit to squared inhibition kinetics
[6] = Saccharomyces cerevisiae, PNY827, read-out: IC50 on growth (inhibitor concentration with 50% μ°max)
[7] = fit to hybrid inhibition kinetics model

Q: Cc1cn[nH]c1.Cl [4-methylpyrazole hydrochloride] was tested. Which “μ°max (fitted maximum specific growth rate without inhibitor)” value [1] did it give?
A: 0.58 L/h

Q: And the Ki [1, 5]?
A: 41 mM

Q: What about the “inhibitor-based mumax (corrected for effect of DMSO)” value (from here on “inhibitor-based mumax”) ([1]; hydrochloride) of the same compound?
A: 0.48 L/h and 0.38 L/h

Q: And the “observed μmax” value ([1]; hydrochloride)?
A: 0.48 L/h and 0.24 L/h

Q: For O=C(O)c1cn[nH]c1 [4-pyrazolecarboxylic acid], which “inhibitor-based mumax” value [1] is on record?
A: 0.59 L/h and 0.50 L/h

Q: And the “μ°max (fitted maximum specific growth rate without inhibitor)” value [1]?
A: 0.60 L/h

Q: And the Ki [1, 5]?
A: 100 mM

Q: Which “zones of growth inhibition (inhibition of yeast growth)” value (“zones of growth inhibition” below) [2] does the source give for COc1cc(OC)nc(NC(=O)NS(=O)(=O)c2ncccc2C(=O)N(C)C)n1 [Accent, nicosulfuron methyl] here?
A: did not inhibit

Q: How did the “zones of growth inhibition” value [2] turn out when COC(=O)c1ccccc1S(=O)(=O)NC(=O)Nc1nc(C)nc(OC)n1 [Ally, metsulfuron methyl] was run?
A: inhibit growth

Q: CCOC(=O)c1ccccc1S(=O)(=O)NC(=O)Nc1nc(Cl)cc(OC)n1 [Classic, chlorimuron ethyl] was tested. Which “zones of growth inhibition” value [2] did it give?
A: inhibit growth

Q: Which results are given for C[S+](C)[O-] [DMSO]?
A: μmax (maximum specific growth rate) [1]: 0.56 L/h; Ki [1]: ~16 mM

Q: How did the “zones of growth inhibition” value [2] turn out when COC(=O)c1sccc1S(=O)(=O)NC(=O)Nc1nc(C)nc(OC)n1 [Harmony, thifensulfuron methyl] was run?
A: did not inhibit

Q: With O=C/C=C/c1ccccc1 [cinnamaldehyde, trans-cinnamaldehyde] as the compound, how does the “DHIV + DHMB” value [3] read?
A: 0.0 mM

Q: And the “ratio of butanol vs. ethanol produced compared with no addition” value ([3]; 250 μM, inoculum ratios 1:1 and 1:11, EPT=8 h and EPT=48 h)?
A: lower

Q: What about the “growth of mixed cultures” value ([3]; 25 mM, both mixed cultures (1:1 and 1:11), EPT=8 h and EPT=48 h) of the same compound?
A: No growth

Q: What about the “inhibitor-based mumax” value [1] of the same compound?
A: 0.64 L/h and 0.63 L/h and 0.55 L/h

Q: What about the “observed μmax” value [1] of the same compound?
A: 0.64 L/h and 0.63 L/h and 0.55 L/h

Q: What about the “μ°max (fitted maximum specific growth rate without inhibitor)” value [1] of the same compound?
A: 0.62 L/h

Q: And the IC50 [1, 6]?
A: 0.25 mM

Q: And the Ki [1, 5]?
A: 0.25 mM

Q: And the cell growth ([1]; non-DMSO experiments: 200 mM, 100 mM, 50 mM, 25 mM, 10 mM, 1 mM)?
A: in none of the non-DMSO experiments any cell growth was observed

Q: What does the source list for C=O [formaldehyde]?
A: μ°max (fitted maximum specific growth rate without inhibitor) [1]: 0.59 L/h; IC50 [1, 6]: 0.9 mM

Q: For O=CC(=O)O [glyoxylic acid, glyoxylic acid sodium salt monohydrate], which “μ°max (fitted maximum specific growth rate without inhibitor)” value [1] is on record?
A: 0.60 L/h

Q: And the “μmax (maximum specific growth rate)” value ([1]; sodium salt monohydrate)?
A: 0.59 L/h and 0.55 L/h

Q: How did the “DHIV + DHMB” value [3] turn out when c1cn[nH]c1 [pyrazole] was run?
A: 0.0 mM

Q: What about the “butanol-to-ethanol ratio compared with no inhibitor” value ([3]; 3 mM and 30 mM, inoculum ratios 1:1 and 1:11, EPT=8 h) of the same compound?
A: dramatically increased

Q: And the “butanol:ethanol ratio compared with no inhibitor” value ([3]; 30 mM, both inoculum ratios, EPT=48 h)?
A: significantly increased

Q: And the “overall observable μ°max” value [1]?
A: 0.60 L/h

Q: What about the “μ°max 1” value [1] of the same compound?
A: 0.52 L/h

Q: And the “μ°max 2” value [1]?
A: 0.08 L/h

Q: And the IC50 [1, 6]?
A: 3.3 mM

Q: What about the Ki [1, 7] of the same compound?
A: 2.8 mM

Q: How did the “OD600corr [ ]” value [1] turn out when O=S([O-])[O-].[Na+].[Na+] [sulfite, sodium sulfite] was run?
A: 0.081 and 0.087 and 0.088 and 0.092

Q: What about the “OD600corr [ ]” value ([1]; 1 mM (F8-su-1), time 1.00 h) of the same compound?
A: 0.082

Q: What about the “OD600corr [ ]” value ([1]; 1 mM (F8-su-1), time 2.25 h) of the same compound?
A: 0.121

Q: And the “OD600corr [ ]” value ([1]; 1 mM (F8-su-1), time 3.25 h)?
A: 0.185

Q: And the “OD600corr [ ]” value ([1]; 1 mM (F8-su-1), time 4.25 h)?
A: 0.307

Q: And the “OD600corr [ ]” value ([1]; 1 mM (F8-su-1), time 6.00 h)?
A: 1.102

Q: What about the “OD600corr [ ]” value ([1]; 1 mM (F8-su-1), time 23.67 h) of the same compound?
A: 11.157

Q: What about the “μmax (maximum specific growth rate)” value ([1]; 1 mM inhibitor) of the same compound?
A: 0.59 L/h

Q: And the “OD600corr [ ]” value ([1]; 2 mM (F9-su-2), time 1.00 h)?
A: 0.086

Q: What about the “OD600corr [ ]” value ([1]; 2 mM (F9-su-2), time 2.25 h) of the same compound?
A: 0.120

Q: What about the “OD600corr [ ]” value ([1]; 2 mM (F9-su-2), time 3.25 h) of the same compound?
A: 0.173

Q: What about the “OD600corr [ ]” value ([1]; 2 mM (F9-su-2), time 4.25 h) of the same compound?
A: 0.265

Q: What about the “OD600corr [ ]” value ([1]; 2 mM (F9-su-2), time 6.00 h) of the same compound?
A: 0.887

Q: And the “OD600corr [ ]” value ([1]; 2 mM (F9-su-2), time 23.67 h)?
A: 12.217

Q: And the “μmax (maximum specific growth rate)” value ([1]; 2 mM inhibitor)?
A: 0.54 L/h

Q: What about the “OD600corr [ ]” value ([1]; 5 mM (F10-su-3), time 1.00 h) of the same compound?
A: 0.090

Q: What about the “OD600corr [ ]” value ([1]; 5 mM (F10-su-3), time 2.25 h) of the same compound?
A: 0.116

Q: And the “OD600corr [ ]” value ([1]; 5 mM (F10-su-3), time 3.25 h)?
A: 0.153

Q: And the “OD600corr [ ]” value ([1]; 5 mM (F10-su-3), time 4.25 h)?
A: 0.208

Q: What about the “OD600corr [ ]” value ([1]; 5 mM (F10-su-3), time 6.00 h) of the same compound?
A: 0.392

Q: And the “OD600corr [ ]” value ([1]; 5 mM (F10-su-3), time 9.58 h)?
A: 2.572

Q: And the “OD600corr [ ]” value ([1]; 5 mM (F10-su-3), time 23.67 h)?
A: 11.717

Q: And the “μmax (maximum specific growth rate)” value ([1]; 5 mM inhibitor)?
A: 0.33 L/h

Q: And the “OD600corr [ ]” value ([1]; 10 mM (F11-su-4), time 1.00 h)?
A: 0.085

Q: What about the “OD600corr [ ]” value ([1]; 10 mM (F11-su-4), time 2.25 h) of the same compound?
A: 0.111

Q: What about the “OD600corr [ ]” value ([1]; 10 mM (F11-su-4), time 3.25 h) of the same compound?
A: 0.140

Q: And the “OD600corr [ ]” value ([1]; 10 mM (F11-su-4), time 4.25 h)?
A: 0.175

Q: And the “OD600corr [ ]” value ([1]; 10 mM (F11-su-4), time 6.00 h)?
A: 0.268

Q: And the “OD600corr [ ]” value ([1]; 10 mM (F11-su-4), time 9.58 h)?
A: 1.102

Q: What about the “OD600corr [ ]” value ([1]; 10 mM (F11-su-4), time 23.67 h) of the same compound?
A: 11.437

Q: What about the “μmax (maximum specific growth rate)” value ([1]; 10 mM inhibitor) of the same compound?
A: 0.23 L/h

Q: And the “OD600corr [ ]” value ([1]; 20 mM (F3-su-1), time 1.50 h)?
A: 0.099

Q: What about the “OD600corr [ ]” value ([1]; 20 mM (F3-su-1), time 2.67 h) of the same compound?
A: 0.115

Q: What about the “OD600corr [ ]” value ([1]; 20 mM (F3-su-1), time 4.00 h) of the same compound?
A: 0.150

Q: What about the “OD600corr [ ]” value ([1]; 20 mM (F3-su-1), time 5.33 h) of the same compound?
A: 0.182

Q: What about the “OD600corr [ ]” value ([1]; 20 mM (F3-su-1), time 6.75 h) of the same compound?
A: 0.226

Q: What about the “OD600corr [ ]” value ([1]; 20 mM (F3-su-1), time 9.42 h) of the same compound?
A: 0.396

Q: And the “OD600corr [ ]” value ([1]; 20 mM (F3-su-1), time 23.25 h)?
A: 9.697

Q: What about the “μmax (maximum specific growth rate)” value ([1]; 20 mM inhibitor) of the same compound?
A: 0.18 L/h

Q: And the “OD600corr [ ]” value ([1]; 50 mM (F4-su-2), time 1.50 h)?
A: 0.095

Q: What about the “OD600corr [ ]” value ([1]; 50 mM (F4-su-2), time 2.67 h) of the same compound?
A: 0.116

Q: What about the “OD600corr [ ]” value ([1]; 50 mM (F4-su-2), time 4.00 h) of the same compound?
A: 0.135

Q: What about the “OD600corr [ ]” value ([1]; 50 mM (F4-su-2), time 5.33 h) of the same compound?
A: 0.161

Q: And the “OD600corr [ ]” value ([1]; 50 mM (F4-su-2), time 6.75 h)?
A: 0.192

Q: And the “OD600corr [ ]” value ([1]; 50 mM (F4-su-2), time 9.42 h)?
A: 0.295

Q: What about the “OD600corr [ ]” value ([1]; 50 mM (F4-su-2), time 23.25 h) of the same compound?
A: 10.717

Q: What about the “μmax (maximum specific growth rate)” value ([1]; 50 mM inhibitor) of the same compound?
A: 0.14 L/h

Q: What about the “μ°max 1” value [1, 7] of the same compound?
A: 0.46 L/h

Q: What about the “μ°max 2” value [1, 7] of the same compound?
A: 0.15 L/h

Q: What about the Ki [1, 7] of the same compound?
A: 4.4 mM

Q: What about the “overall observable μ°max” value ([1]; predicted by hybrid inhibition kinetics model) of the same compound?
A: 0.61 L/h

Q: What about the IC50 ([1]; read-out: IC50 on growth (inhibitor concentration with 50% μ°max), derived from inhibition kinetics and fitted parameters) of the same compound?
A: 6.2 mM

Q: How did the “overall observable μ°max” value [1] turn out when COC(=O)c1ccccc1S(=O)(=O)NC(=O)Nc1nc(C)cc(C)n1 [sulfometuron methyl] was run?
A: 0.59 L/h

Q: And the “μmax (maximum specific growth rate)” value [1]?
A: 0.04 L/h and 0.05 L/h

Q: What about the “μ°max 1” value [1] of the same compound?
A: 0.55 L/h

Q: And the “μ°max 2” value [1]?
A: 0.04 L/h

Q: And the IC50 [1, 6]?
A: < 0.1 mM

Q: What about the Ki [1, 7] of the same compound?
A: < 0.1 mM

Q: What about the “zones of growth inhibition” value [2] of the same compound?
A: inhibit growth

Q: What about the “resistance (growth scored after overnight incubation)” value [4] of the same compound?
A: higher resistance
